These are literature values, as cited in patent publication US20100323985A1, “PHARMACEUTICAL OR COSMETIC PREPARATIONS FOR TOPICAL AND/OR PARENTERAL APPLICATION, PREPARATION METHODS THEREOF AND USE OF SAME” (priority 2007, published 2010).

For data set [1] the following is noted: in vivo.
The conditions of data set [2]: humans.

Consider hyaluronic acid, for which, in data set [1], the immunogenicity result is given as “no immunogenicity” and the tolerance entry is reported as “very good”. Besides, in data set [2], the “excretion in the urine” value is recorded as “less than 1 % of total clearance”.
